Test results from patent publication US5075289A, “9-R-azacyclic erythromycin antibiotics” (priority 1988, dated 1991).
≈ marks a conversion by molar mass, not a printed value. Like-named read-outs stand apart in the source and are kept apart here.

Columns and labels:
Format in all cases: cell-based
[1] = test system: Haemophilus influenzae 632A; experiment: In vitro antibacterial activity, agar dilution MIC; settings: H. influenzae 632A
Outline: (§1)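 Test compound serially diluted in Brain Heart Infusion agar across twelve plates; inocula of 1:100 dilutions (1:10 for slow growers such as Streptococcus) applied by replicator. Plates incubated 20-24 h at 35°-37° C. MIC taken as lowest concentration giving no growth, slight haze or sparse isolated colonies versus drug-free control.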

[2] = test system: Streptococcus bovis A5169; experiment: In vitro antibacterial activity, agar dilution MIC; settings: read-out: MIC
Outline: as §1

[3] = test system: Haemophilus influenzae SOL AMP R; experiment: In vitro antibacterial activity, agar dilution MIC; settings: H. influenzae SOL AMP R
Outline: as §1

[4] = test system: Staphylococcus aureus 642A; experiment: In vitro antibacterial activity, agar dilution MIC; settings: S. aureus 642A, Brain Heart Infusion agar, 20-24 hours, read-out: MIC
Outline: as §1

[5] = test system: Haemophilus influenzae 504; experiment: In vitro antibacterial activity, agar dilution MIC; settings: H. influenzae 504
Outline: as §1

[6] = test system: Haemophilus influenzae 1435; experiment: In vitro antibacterial activity, agar dilution MIC; settings: H. influenzae 1435
Outline: as §1

[7] = test system: Haemophilus influenzae 751; experiment: In vitro antibacterial activity, agar dilution MIC; settings: H. influenzae 751
Outline: as §1

[8] = test system: Haemophilus influenzae 519A; experiment: In vitro antibacterial activity, agar dilution MIC; settings: H. influenzae 519A
Outline: as §1

[9] = test system: Staphylococcus aureus CMX 553; experiment: In vitro antibacterial activity, agar dilution MIC; settings: CMX553, S. aureus CMX 553, Brain Heart Infusion agar, 20-24 hours, read-out: MIC
Outline: as §1

[10] = test system: Micrococcus luteus ATCC 4698; experiment: In vitro antibacterial activity, agar dilution MIC; settings: ATCC4698, read-out: MIC
Outline: as §1

[11] = test system: Micrococcus luteus ATCC 9341; experiment: In vitro antibacterial activity, agar dilution MIC; settings: ATCC9341, M. luteus ATCC 9341, Brain Heart Infusion agar, 20-24 hours, read-out: MIC
Outline: as §1

[12] = test system: Staphylococcus epidermidis 3519; experiment: In vitro antibacterial activity, agar dilution MIC; settings: S. epidermidis 3519, Brain Heart Infusion agar, 20-24 hours, read-out: MIC
Outline: as §1

[13] = test system: Streptococcus pyogenes 2548 INDUC; experiment: In vitro antibacterial activity, agar dilution MIC
Outline: as §1

[14] = test system: Haemophilus influenzae 1177; experiment: In vitro antibacterial activity, agar dilution MIC; settings: H. influenzae 1177
Outline: as §1

Escherichia coli Juhl = experiment: In vitro antibacterial activity, agar dilution MIC
Outline: as §1

[15] = test system: Streptococcus pyogenes EES61; experiment: In vitro antibacterial activity, agar dilution MIC; settings: S. pyogenes EES61, Brain Heart Infusion agar, 20-24 hours, read-out: MIC
Outline: as §1

[16] = test system: Streptococcus agalactiae CMX 508; experiment: In vitro antibacterial activity, agar dilution MIC; settings: CMX508, S. agalactiae CMX 508, Brain Heart Infusion agar, 20-24 hours, read-out: MIC
Outline: as §1

[17] = test system: Haemophilus influenzae DILL AMP R; experiment: In vitro antibacterial activity, agar dilution MIC; settings: H. influenzae DILL AMP R
Outline: as §1

[18] = test system: Staphylococcus aureus ATCC 6538P; experiment: In vitro antibacterial activity, agar dilution MIC; settings: ATCC6538P
Outline: as §1

[19] = test system: Enterococcus faecium ATCC 8043; experiment: In vitro antibacterial activity, agar dilution MIC; settings: ATCC8043
Outline: as §1

[20] = test system: Haemophilus influenzae 566A; experiment: In vitro antibacterial activity, agar dilution MIC; settings: H. influenzae 566A
Outline: as §1

[21] = test system: Haemophilus influenzae 588A; experiment: In vitro antibacterial activity, agar dilution MIC; settings: H. influenzae 588A
Outline: as §1

[22] = test system: Haemophilus influenzae 667A; experiment: In vitro antibacterial activity, agar dilution MIC; settings: H. influenzae 667A
Outline: as §1

Escherichia coli SS = experiment: In vitro antibacterial activity, agar dilution MIC; settings: read-out: MIC
Outline: as §1

Staphylococcus aureus 45 = experiment: In vitro antibacterial activity, agar dilution MIC; settings: S. aureus 45, Brain Heart Infusion agar, 20-24 hours, read-out: MIC
Outline: as §1

Escherichia coli H560 = experiment: In vitro antibacterial activity, agar dilution MIC; settings: E. coli H560, Brain Heart Infusion agar, 20-24 hours, read-out: MIC
Outline: as §1

[23] = test system: Staphylococcus aureus NCTC 10649; experiment: In vitro antibacterial activity, agar dilution MIC; settings: NCTC10649, S. aureus NCTC 10649, Brain Heart Infusion agar, 20-24 hours, read-out: MIC
Outline: as §1

[24] = test system: Haemophilus influenzae ATCC 19418; experiment: In vitro antibacterial activity, agar dilution MIC; settings: ATCC19418, H. influenzae ATCC 19418
Outline: as §1

[25] = test system: Streptococcus pyogenes 930 CONST; experiment: In vitro antibacterial activity, agar dilution MIC; settings: 930CONST
Outline: as §1

[26] = test system: Haemophilus influenzae 747C; experiment: In vitro antibacterial activity, agar dilution MIC; settings: H. influenzae 747C
Outline: as §1

[27] = test system: Haemophilus influenzae SPK AMP R; experiment: In vitro antibacterial activity, agar dilution MIC; settings: H. influenzae SPK AMP R
Outline: as §1

Escherichia coli DC-2 = experiment: In vitro antibacterial activity, agar dilution MIC; settings: DC2
Outline: as §1

[28] = test system: Staphylococcus aureus A5177; experiment: In vitro antibacterial activity, agar dilution MIC; settings: S. aureus A5177, Brain Heart Infusion agar, 20-24 hours, read-out: MIC
Outline: as §1

[29] = test system: Haemophilus influenzae ATCC 9795; experiment: In vitro antibacterial activity, agar dilution MIC; settings: ATCC9795, H. influenzae ATCC 9795
Outline: as §1

[30] = test system: Haemophilus influenzae 503B; experiment: In vitro antibacterial activity, agar dilution MIC; settings: H. influenzae 503B
Outline: as §1

[31] = test system: Haemophilus influenzae ATCC 10211; experiment: In vitro antibacterial activity, agar dilution MIC; settings: ATCC10211, H. influenzae ATCC 10211
Outline: as §1

[32] = test system: Staphylococcus aureus 45 RAR 2; experiment: microbe, parasite or virus in culture; settings: 45RAR2
Outline: as §1

SMILES | MIC [1] | MIC [3] | MIC [4] | MIC [5] | MIC [6] | MIC [7] | MIC [8] | MIC [9] | MIC [10] | MIC [14] | MIC [17] | MIC [20] | MIC [21] | MIC [22] | MIC [24] | MIC [26] | MIC [27] | MIC [29] | MIC [30] | MIC [31] | also measured
CC[C@H]1OC(=O)[C@H](C)[C@@H](O[C@H]2C[C@@](C)(OC)[C@@H](O)[C@H](C)O2)[C@H](C)[C@@H](O[C@@H]2O[C@H](C)C[C@H](N(C)C)[C@H]2O)[C@](C)(O)C[C@@H](C)[C@@H](N2CCC(C)CC2)[C@H](C)[C@@H](O)[C@]1(C)O [Example 6] | 1 µg/mL (≈ 1.22 µM) | 1 µg/mL (≈ 1.22 µM) | 0.39 µg/mL (≈ 0.477 µM) | 1 µg/mL (≈ 1.22 µM) | 1 µg/mL (≈ 1.22 µM) | 1 µg/mL (≈ 1.22 µM) | 0.5 µg/mL (≈ 0.612 µM) | 0.39 µg/mL (≈ 0.477 µM) | 0.2 µg/mL (≈ 0.245 µM) | 0.25 µg/mL (≈ 0.306 µM) | 1 µg/mL (≈ 1.22 µM) | 2 µg/mL (≈ 2.45 µM) | 1 µg/mL (≈ 1.22 µM) | 2 µg/mL (≈ 2.45 µM) | 2 µg/mL (≈ 2.45 µM) | 1 µg/mL (≈ 1.22 µM) | 1 µg/mL (≈ 1.22 µM) | 1 µg/mL (≈ 1.22 µM) | 1 µg/mL (≈ 1.22 µM) | 1 µg/mL (≈ 1.22 µM) | MIC [2]: 0.02 µg/mL (≈ 0.0245 µM); MIC [11]: 0.05 µg/mL (≈ 0.0612 µM); MIC [12]: 0.39 µg/mL (≈ 0.477 µM); MIC ([13]; 2548INDUC): 3.1 µg/mL (≈ 3.79 µM); MIC (Escherichia coli Juhl): 12.5 µg/mL (≈ 15.3 µM); MIC [15]: 0.1 µg/mL (≈ 0.122 µM); MIC [16]: 0.1 µg/mL (≈ 0.122 µM); MIC [18]: 0.39 µg/mL (≈ 0.477 µM); MIC [19]: 0.1 µg/mL (≈ 0.122 µM); MIC (Escherichia coli SS): 0.2 µg/mL (≈ 0.245 µM); MIC (Staphylococcus aureus 45): 0.2 µg/mL (≈ 0.245 µM); MIC (Escherichia coli H560): 3.1 µg/mL (≈ 3.79 µM); MIC [23]: 0.78 µg/mL (≈ 0.955 µM); MIC [25]: > 100 µg/mL; MIC (Escherichia coli DC-2): 25 µg/mL (≈ 30.6 µM); MIC [28]: 3.1 µg/mL (≈ 3.79 µM); MIC [32]: 0.78 µg/mL (≈ 0.955 µM)
CC[C@H]1OC(=O)[C@H](C)[C@@H](O[C@H]2C[C@@](C)(OC)[C@@H](O)[C@H](C)O2)[C@H](C)[C@@H](O[C@@H]2O[C@H](C)C[C@H](N(C)C)[C@H]2O)[C@](C)(O)C[C@@H](C)[C@@H](N2CCC(C)(C)CC2)[C@H](C)[C@@H](O)[C@]1(C)O [Example 7] | 1 µg/mL (≈ 1.2 µM) | 0.5 µg/mL (≈ 0.602 µM) | 0.39 µg/mL (≈ 0.469 µM) | 1 µg/mL (≈ 1.2 µM) | 0.5 µg/mL (≈ 0.602 µM) | 1 µg/mL (≈ 1.2 µM) | 0.5 µg/mL (≈ 0.602 µM) | 0.39 µg/mL (≈ 0.469 µM) | 0.2 µg/mL (≈ 0.241 µM) | 0.25 µg/mL (≈ 0.301 µM) | 1 µg/mL (≈ 1.2 µM) | 2 µg/mL (≈ 2.41 µM) | 1 µg/mL (≈ 1.2 µM) | 1 µg/mL (≈ 1.2 µM) | 2 µg/mL (≈ 2.41 µM) | 1 µg/mL (≈ 1.2 µM) | 1 µg/mL (≈ 1.2 µM) | 1 µg/mL (≈ 1.2 µM) | 1 µg/mL (≈ 1.2 µM) | 1 µg/mL (≈ 1.2 µM) | MIC ([2]; S. bovis A5169, Brain Heart Infusion agar, 20-24 hours): ≤ 0.05 µg/mL; MIC [11]: ≤ 0.05 µg/mL; MIC [12]: 0.39 µg/mL (≈ 0.469 µM); MIC ([13]; S. pyogenes 2548 INDUC, Brain Heart Infusion agar, 20-24 hours, read-out: MIC): 6.2 µg/mL (≈ 7.46 µM); MIC (Escherichia coli Juhl): 12.5 µg/mL (≈ 15 µM); MIC [15]: 0.1 µg/mL (≈ 0.12 µM); MIC [16]: ≤ 0.05 µg/mL; MIC [18]: 0.39 µg/mL (≈ 0.469 µM); MIC [19]: 0.1 µg/mL (≈ 0.12 µM); MIC (Escherichia coli SS): 0.2 µg/mL (≈ 0.241 µM); MIC (Staphylococcus aureus 45): 0.2 µg/mL (≈ 0.241 µM); MIC (Escherichia coli H560): 3.1 µg/mL (≈ 3.73 µM); MIC [23]: 0.39 µg/mL (≈ 0.469 µM); MIC [25]: > 100 µg/mL; MIC (Escherichia coli DC-2): 12.5 µg/mL (≈ 15 µM); MIC [28]: 3.1 µg/mL (≈ 3.73 µM); MIC [32]: 0.39 µg/mL (≈ 0.469 µM)
CC[C@H]1OC(=O)[C@H](C)[C@@H](O[C@H]2C[C@@](C)(OC)[C@@H](O)[C@H](C)O2)[C@H](C)[C@@H](O[C@@H]2O[C@H](C)C[C@H](N(C)C)[C@H]2O)[C@](C)(O)C[C@@H](C)[C@@H](N2CCC(OC)(OC)CC2)[C@H](C)[C@@H](O)[C@]1(C)O [Example 27] | 1 µg/mL (≈ 1.16 µM) | 1 µg/mL (≈ 1.16 µM) | – | 1 µg/mL (≈ 1.16 µM) | 0.25 µg/mL (≈ 0.29 µM) | 2 µg/mL (≈ 2.32 µM) | 0.25 µg/mL (≈ 0.29 µM) | – | – | 0.06 µg/mL (≈ 0.0695 µM) | 0.5 µg/mL (≈ 0.579 µM) | 1 µg/mL (≈ 1.16 µM) | 1 µg/mL (≈ 1.16 µM) | 1 µg/mL (≈ 1.16 µM) | 1 µg/mL (≈ 1.16 µM) | 1 µg/mL (≈ 1.16 µM) | 1 µg/mL (≈ 1.16 µM) | 1 µg/mL (≈ 1.16 µM) | 1 µg/mL (≈ 1.16 µM) | 0.5 µg/mL (≈ 0.579 µM) | –
CC[C@H]1OC(=O)[C@H](C)[C@@H](O[C@H]2C[C@@](C)(OC)[C@@H](O)[C@H](C)O2)[C@H](C)[C@@H](O[C@@H]2O[C@H](C)C[C@H](N(C)C)[C@H]2O)[C@](C)(O)C[C@@H](C)[C@@H](N2CCC(=O)CC2)[C@H](C)[C@@H](O)[C@]1(C)O [Example 28] | 2 µg/mL (≈ 2.45 µM) | 0.5 µg/mL (≈ 0.612 µM) | – | 1 µg/mL (≈ 1.22 µM) | 0.25 µg/mL (≈ 0.306 µM) | 2 µg/mL (≈ 2.45 µM) | 0.25 µg/mL (≈ 0.306 µM) | – | – | 0.25 µg/mL (≈ 0.306 µM) | 0.5 µg/mL (≈ 0.612 µM) | 2 µg/mL (≈ 2.45 µM) | 1 µg/mL (≈ 1.22 µM) | 1 µg/mL (≈ 1.22 µM) | 1 µg/mL (≈ 1.22 µM) | 0.5 µg/mL (≈ 0.612 µM) | 0.5 µg/mL (≈ 0.612 µM) | 1 µg/mL (≈ 1.22 µM) | 0.25 µg/mL (≈ 0.306 µM) | 5 µg/mL (≈ 6.12 µM) | –
